US7291628B2, “Treatment of cocaine abuse using N-substituted derivatives of morphinan” (McLean Hospital Corporation, priority 2001, dated 2007)
“Also recorded” adds a separate entry of the source.

Columns and labels:
[1] = molecular target: μ opioid receptor (Cavia porcellus, UniProt A0ACM8Q262); assay: competitive binding assay with [3H]DAMGO in guinea pig brain membranes; settings: for affinity for the μ opioid receptor, in words: comparator, if any, as in the value; for Ki: read-out: Ki, μ opioid receptor, [3H]DAMGO, guinea pig brain membranes
[2] = molecular target: T1, δ opioid receptor (Cavia porcellus, UniProt A0A286XTF2); assay: competitive binding assay with [3H]naltrindole in guinea pig brain membranes
T1 construct: from tissue; host or cells: guinea pig brain membranes

[3] = molecular target: T2, κ opioid receptor (Cavia porcellus, UniProt P41144); assay: competitive binding assay with [3H]U69,593 in guinea pig brain membranes; settings: for affinity for the κ opioid receptor, in words: comparator, if any, as in the value; for increase in affinity at the κ opioid receptor: relative to levorphanol; for κ/δ selectivity: κ versus δ binding
T2 construct: from tissue; host or cells: guinea pig brain membranes

Oc1ccc2c(c1)[C@@]13CCCC[C@H]1[C@@H](C2)N(CC1CCC1)CC3 [MCL-101, reference compound]
affinity for the μ opioid receptor, in words [1]: almost the same affinity for the μ and κ opioid receptors as cyclorphan | increase in affinity at the μ opioid receptor ([1]; relative to levorphanol): 2 fold | increase in affinity at the δ opioid receptor ([2]; relative to levorphanol): 3 fold | affinity for the κ opioid receptor, in words [3]: almost the same affinity for the μ and κ opioid receptors as cyclorphan | increase in affinity at the κ opioid receptor [3]: 30 fold | κ/δ selectivity [3]: 18 fold

COCCN1CC[C@]23CCCC[C@H]2[C@H]1Cc1ccc(O)cc13 [Compound 6]
affinity for the μ opioid receptor, in words [1]: high affinity | Ki [1]: 0.11 nM | Ki [3]: 0.094 nM | affinity for the κ opioid receptor, in words [3]: high affinity

Oc1ccc2c(c1)[C@@]13CCCC[C@H]1[C@@H](C2)N(CCCF)CC3 [Compound 3]
affinity for the μ opioid receptor, in words [1]: high affinity | Ki [1]: 0.18 nM | Ki [2]: 0.85 nM | Ki [3]: 0.083 nM | affinity for the κ opioid receptor, in words [3]: high affinity

I/C=C\CN1CC[C@]23CCCC[C@H]2[C@H]1Cc1ccccc13 [Compound 35, N-(3-iodoprop-(2Z)-enyl)morphinan]
decreased affinity for the μ receptor ([1]; relative to 34): 100 fold | decreased affinity for the κ receptor ([3]; relative to 34): 17 fold

I/C=C/CN1CC[C@]23CCCC[C@H]2[C@H]1Cc1ccccc13 [Compound 34, N-(3-iodoprop-(2E)-enyl)morphinan]
affinity for the μ opioid receptor, in words [1]: Ki values in the picomolar range; also recorded: very high affinity | decreased affinity for the δ opioid receptor ([2]; in comparison to compound 9): 43 fold | affinity for the κ opioid receptor, in words [3]: Ki values in the picomolar range; also recorded: very high affinity | decreased affinity for the κ opioid receptor ([3]; in comparison to compound 9): 10 fold

C=CCN1CC[C@]23CCCC[C@H]2[C@H]1Cc1ccc(O)cc13 [Compound 8, levallorphan, reference compound]
change in affinity for the μ opioid receptor, in words ([1]; relative to levorphanol): almost no changes in affinity | change in affinity for the δ opioid receptor, in words ([2]; relative to levorphanol): almost no changes in affinity | increase in affinity at the κ opioid receptor [3]: 15 fold

Oc1ccc2c(c1)[C@@]13CCCC[C@H]1[C@@H](C2)N(CC1CC1)CC3 [cyclorphan, reference compound]
κ/δ selectivity [3]: 4 fold
